Measured values reported in patent US20200002354A1, “HEXAHYDROPYRAZINOBENZ- OR -PYRIDO-OXAZEPINES CARRYING AN OXYGEN-CONTAINING SUBSTITUENT AND USE THEREOF IN THE TREATMENT OF 5-HT2C-DEPENDENT DISORDERS” (AbbVie Deutschland GmbH & Co. KG, priority 2015, published 2020).
Where a name gives a salt, the structure may show the parent alone. Read-outs that look alike come from different tables or passages of the source.

Experiments:
[1] = target: T1, human 5-HT2B receptor (Homo sapiens, UniProt P41595); assay: Human 5-HT2B functional assay (calcium mobilisation in CHO-FlpIn cells, FLIPR); format: cell-based; settings: based on agonism: EC50 5-HT2B/EC50 5-HT2C
T1 construct: expressed in transfected cells; host or cells: CHO-FlpIn
T1 sequence (P41595 whole entry): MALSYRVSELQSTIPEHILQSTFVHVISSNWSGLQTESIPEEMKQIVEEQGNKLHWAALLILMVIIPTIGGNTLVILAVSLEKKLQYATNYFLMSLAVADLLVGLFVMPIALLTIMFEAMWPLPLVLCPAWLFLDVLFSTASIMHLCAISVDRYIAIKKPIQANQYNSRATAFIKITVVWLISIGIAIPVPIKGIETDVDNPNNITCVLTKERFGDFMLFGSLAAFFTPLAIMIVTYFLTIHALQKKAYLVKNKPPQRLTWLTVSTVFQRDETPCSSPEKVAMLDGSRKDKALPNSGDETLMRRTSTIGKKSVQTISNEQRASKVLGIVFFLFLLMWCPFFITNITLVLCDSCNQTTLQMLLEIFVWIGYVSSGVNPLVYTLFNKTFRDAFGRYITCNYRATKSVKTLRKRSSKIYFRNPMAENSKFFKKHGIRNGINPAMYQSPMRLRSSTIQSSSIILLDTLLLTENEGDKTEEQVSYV
Description: 3. Human 5-HT2B Functional Assay
Functional activity on the 5-HT2B receptor was determined by testing the effect of the compounds I on calcium mobilisation in CHO-FlpIn cells, stably transfected with human 5-HT2B receptor. Cells were seeded into sterile black 384-well plates with clear bottom at 30,000 cells/well in a volume of 25 μl and grown overnight at 37° C., in 5% CO2 in tissue culture medium (“CHO-S-SFM II” by Invitrogen), containing 1% dialysed FCS and 50 μg/ml gentamicin (Invitrogen). On the next morning, medium was replaced by a serum free version of the same tissue culture medium for a further incubation for 4 hours at 37° C. and in 5% CO2. Cells were then loaded with a fluorescent calcium-sensitive dye in the presence of 0.07% probenecid for an hour at 37° C., according to the manufacturer's protocol (Ca5-Assay Kit, Molecular Devices), followed by an additional 60 min incubation at room temperature. Serial compound dilutions (final concentrations of 10^−10 to 10^−5M, prepared in HBSS+50 mM HEPES) were first added to the cells alone (“first addition” to assess agonism on the 5-HT2B receptor), then after 8 min, serotonin was added to the same wells at a final concentration of 10^−8 M (“second addition” to see potential antagonistic effect) and the maximal calcium response was determined using a FLIPR® Tetra instrument (Molecular Devices) in each of the two steps. The relative efficacy of the compounds was calculated as a percentage of the maximal effect induced by serotonin alone (defined as 100%). To determine EC50/IC50 values, concentration-response curves were fitted using a four-parameter logistic equation (IDBS Biobookml). Kb values were calculated from IC50 values, according to Cheng & Prusoff

[2] = target: T2, human 5-HT2A receptor (Homo sapiens, UniProt P28223); assay: Human 5-HT2A functional assay (calcium mobilisation in CHO-K1 cells, FLIPR); format: cell-based; settings: based on agonism: EC50 5-HT2A/EC50 5-HT2C
T2 construct: expressed in transfected cells; host or cells: CHO-K1
T2 sequence (P28223 whole entry): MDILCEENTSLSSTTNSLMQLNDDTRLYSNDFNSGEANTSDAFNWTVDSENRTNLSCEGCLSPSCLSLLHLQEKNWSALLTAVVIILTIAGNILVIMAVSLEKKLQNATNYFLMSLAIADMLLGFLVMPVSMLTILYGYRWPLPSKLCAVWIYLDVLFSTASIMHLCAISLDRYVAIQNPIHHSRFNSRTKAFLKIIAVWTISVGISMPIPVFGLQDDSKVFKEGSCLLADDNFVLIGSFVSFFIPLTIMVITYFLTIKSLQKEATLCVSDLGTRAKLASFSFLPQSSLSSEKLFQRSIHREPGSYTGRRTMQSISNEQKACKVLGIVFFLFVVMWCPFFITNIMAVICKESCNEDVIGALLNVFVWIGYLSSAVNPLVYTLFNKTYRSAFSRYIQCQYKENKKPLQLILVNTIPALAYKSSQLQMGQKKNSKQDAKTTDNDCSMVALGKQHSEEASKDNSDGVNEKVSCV
Description: 2. Human 5-HT2A Functional Assay
Functional activity on the 5-HT2A receptor was determined by testing the effect of the compounds I on calcium mobilisation in CHO-K1 cells, stably transfected with human 5-HT2A receptor. Cells were seeded into sterile black 384-well plates with clear bottom at 25,000 cells/well in a volume of 25 μl and grown for 5-6 hours at 37° C., in 5% CO2 in tissue culture medium (“Ultra CHO” by LONZA), containing 1% dialysed FCS and 50 μg/ml gentamicin (Invitrogen). After this incubation, medium was replaced by a serum free version of the same tissue culture medium followed by incubation overnight at 37° C. and in 5% CO2. Cells were then loaded with a fluorescent calcium-sensitive dye in the presence of 0.07% probenecid for an hour at 37° C., according to the manufacturer's protocol (Ca5-Assay Kit, Molecular Devices), followed by an additional 60 min incubation at room temperature. Serial compound dilutions (final concentrations of 10^−10 to 10^−5M, prepared in HBSS+50 mM HEPES) were first added to the cells alone (“first addition” to assess agonism on the 5-HT2A receptor), then after 8 min, serotonin was added to the same wells at a final concentration of 3×10^−8 M (“second addition” to see potential antagonistic effect) and the maximal calcium response was determined using a FLIPR® Tetra instrument (Molecular Devices) in each of the two steps. The relative efficacy of the compounds was calculated as a percentage of the maximal effect induced by serotonin alone (defined as 100%). To determine EC50/IC50 values, concentration-response curves were fitted using a four-parameter logistic equation (IDBS Biobookml). Kb values were calculated from IC50 values, according to Cheng & Prusoff

[3] = target: T3, 5-HT2C receptor (Homo sapiens, UniProt P28335); assay: Human 5-HT2C functional assay (beta-arrestin2 recruitment, U2OS_HTR2C_β-Arrestin cells); format: cell-based; settings: for EC50: Potency (EC50 5-HT2C) in functional assay, agonism, read-out: EC50 5-HT2C; for Emax: relative efficacy vs maximal effect induced by 5-HT (defined as 100%)
T3 construct: host or cells: U2OS
T3 sequence (P28335 33-458): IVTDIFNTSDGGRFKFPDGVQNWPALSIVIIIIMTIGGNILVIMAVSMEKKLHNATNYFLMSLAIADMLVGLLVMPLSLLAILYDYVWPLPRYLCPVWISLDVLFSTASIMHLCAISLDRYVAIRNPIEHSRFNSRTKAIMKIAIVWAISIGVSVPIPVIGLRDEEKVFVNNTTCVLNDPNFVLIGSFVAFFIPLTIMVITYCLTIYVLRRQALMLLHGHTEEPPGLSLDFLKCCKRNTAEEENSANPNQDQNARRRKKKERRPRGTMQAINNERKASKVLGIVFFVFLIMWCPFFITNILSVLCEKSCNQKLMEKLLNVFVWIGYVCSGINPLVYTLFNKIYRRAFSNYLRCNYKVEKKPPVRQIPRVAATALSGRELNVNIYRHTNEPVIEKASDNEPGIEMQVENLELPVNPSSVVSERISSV
T3 sequence (P32121 whole entry partner): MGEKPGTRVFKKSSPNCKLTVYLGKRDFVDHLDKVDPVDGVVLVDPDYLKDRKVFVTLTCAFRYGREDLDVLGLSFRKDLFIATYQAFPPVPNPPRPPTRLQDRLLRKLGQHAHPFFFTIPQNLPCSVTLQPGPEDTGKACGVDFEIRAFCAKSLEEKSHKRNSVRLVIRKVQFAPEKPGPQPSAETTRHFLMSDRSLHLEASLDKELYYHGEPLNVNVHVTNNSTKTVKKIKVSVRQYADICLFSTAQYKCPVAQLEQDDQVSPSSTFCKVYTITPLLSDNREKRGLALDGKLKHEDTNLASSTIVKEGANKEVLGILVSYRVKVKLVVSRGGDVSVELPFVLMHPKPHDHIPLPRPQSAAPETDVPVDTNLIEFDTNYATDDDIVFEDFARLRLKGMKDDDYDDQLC
Description: 1. Human 5-HT2C Functional Assay
The functional activity of compounds of formula I was assayed by incubation with U2OS_HTR2C_β-Arrestin cells (DiscoverX, 93-0289C3) to induce beta-arrestin2 recruitment to the 5-HT2C receptor. The agonist-induced recruitment and proximity of the receptor and beta-arrestin2 leads to complementation and formation of active β-galactosidase. The enzyme complementation results in enzyme activity, which is measured following the termination of the agonist incubation using DiscoveRx's detection reagent, which contains a chemiluminescent substrate which produces a high intensity signal. Cells were plated and a medium-change to a 1% serum containing medium was performed 24 h later. The next day, test compounds were added and incubated for 1.5 h before addition of detection reagent.
The response produced was measured and compared with the response produced by 10 [mu]M 5-HT or the maximal effect induced by 5-HT (defined as 100%) to which it was expressed as a percentage response (relative efficacy).

[4] = Metabolic stability in human liver microsomes, unbound intrinsic clearance; format: in vitro ADME; settings: pH 7.4, unbound intrinsic clearance (human), Clint unbound = Cl int/fu mic, read-out: Cl int, mic unb. (h)
Description: Samples of the tested compounds (0.5 μM) were preincubated together with human liver microsomes (0.25 mg of microsomal protein/mL) in 0.05 M potassium phosphate buffer of pH 7.4 in microtiter plates at 37° C. for 5 minutes. The reaction was started by adding NADPH (1.0 mM). After 0, 5, 10, 15, 20 and 30 minutes, an aliquot was removed, the reaction was cooled and stopped by adding twice the amount of quench solution consisting of acetonitrile/methanol 1:1, and containing 0.2 μM carbutamide as internal standard. The samples were frozen until analyzed. The remaining concentration of undegraded test substance was determined by liquid chromatography-tandem mass spectrometry (LC-MS/MS). The half-life (t1/2) was determined from the gradient of the ratio of the signal of (test substance/internal standard)/unit time plot, allowing the calculation of the half-life of the test substance, assuming first order kinetics, from the decrease in the concentration of the compound with time. The microsomal clearance (mClint) was calculated as follows: mClint=((ln(2)/t ½)/Microsomal Protein Concentration (mg/ml))*1000, leading to the unit of uL/min/mg. The scaled clearance (mClin_scaled) was calculated as mCLint_scaled=m CLint*(Microsomal Yield (mg/kg BW))/1000000*60, leading to the units L/h/kg. The Microsomal Yield is defined by the specifics of the used microsomes. Calculations were modified from references: Di, The Society for Biomolecular Screening, 2003, 453-462; Obach, D M D, 1999 vol 27. N 11, 1350-1359.
Calculation of Unbound Intrinsic Clearance
C1int unbound=C1 int/fu mic

Compound | Selectivity over 5-HT2B [1] | Selectivity over 5-HT2A [2] | EC50 [3] [nM] | Emax [3] [%] | CLint scaled at 0.5 μM ([4]; liver microsomes) [mL/min/kg] | CLint scaled at 0.5 μM ([4]; microsomes) [mL/min/kg]
COC[C@@H]1C[C@@H]2CNCCN2c2cccc(Cl)c2O1.Cl [Example 1, (4aR,6S)-8-Chloro-6-(methoxymethyl)-2,3,4,4a,5,6-hexahydro-1H-pyrazino[2,1-d][1,5]benzoxazepine hydrochloride] | +++ (>100) | +++ (>100) | < 20 | > 70 | < 83.3 | –
Cl.OC[C@@H]1C[C@@H]2CNCCN2c2cccc(Cl)c2O1 [Example 14, [(4aR,6S)-8-Chloro-2,3,4,4a,5,6-hexahydro-1H-pyrazino[2,1-d][1,5]benzoxazepin-6-yl]methanol hydrochloride] | – | +++ (>100) | 20 to 200 | > 70 | – | < 83.3
OC[C@@H]1C[C@@H]2CNCCN2c2cc(F)cc(Cl)c2O1 [Example 17, [(4aR,6S)-8-Chloro-10-fluoro-2,3,4,4a,5,6-hexahydro-1H-pyrazino[2,1-d][1,5]benzoxazepin-6-yl]methanol hydrochloride] | – | – | < 20 | > 70 | < 83.3 | –
Cl.OC[C@@H]1C[C@@H]2CNCCN2c2c(F)c(F)cc(Cl)c2O1 [Example 20, [(4aR,6S)-8-Chloro-10,11-difluoro-2,3,4,4a,5,6-hexahydro-1H-pyrazino[2,1-d][1,5]benzoxazepin-6-yl]methanol hydrochloride] | – | +++ (>100) | 20 to 200 | > 70 | < 83.3 | –
Cl.OC[C@@H]1C[C@@H]2CNCCN2c2cc(F)cc(C(F)F)c2O1 [Example 23, [(4aR,6S)-8-(Difluoromethyl)-10-fluoro-2,3,4,4a,5,6-hexahydro-1H-pyrazino[2,1-d][1,5]benzoxazepin-6-yl]methanol hydrochloride] | – | + (from 10 to 30) | < 20 | > 70 | < 83.3 | –
COC[C@@H]1C[C@@H]2CNCCN2c2cc(Cl)cc(F)c2O1 [Example 25, (4aR,6S)-10-Chloro-8-fluoro-6-(methoxymethyl)-2,3,4,4a,5,6-hexahydro-1H-pyrazino[2,1-d][1,5]benzoxazepine] | – | +++ (>100) | 20 to 200 | > 70 | < 83.3 | –
COC[C@@H]1C[C@@H]2CNCCN2c2nccc(C(F)F)c2O1.O=C(O)C(F)(F)F [Example 27, (6S,7aR)-4-(Difluoromethyl)-6-(methoxymethyl)-7,7a,8,9,10,11-hexahydro-6H-pyrazino[1,2-d]pyrido[3,2-b][1,4]oxazepine; 2,2,2-trifluoroacetic acid] | – | ++ (from >30 to 100) | 20 to 200 | > 70 | – | < 83.3
COC[C@@H]1C[C@@H]2CNCCN2c2cc(F)cc(C)c2O1.Cl [Example 41, (4aR,6S)-10-Fluoro-6-(methoxymethyl)-8-methyl-2,3,4,4a,5,6-hexahydro-1H-pyrazino[2,1-d][1,5]benzoxazepine hydrochloride] | – | +++ (>100) | < 20 | > 70 | < 83.3 | –
COC[C@@H]1C[C@@H]2CNCCN2c2cccc(OC(F)F)c2O1 [Example 42, (4aR,6S)-8-(Difluoromethoxy)-6-(methoxymethyl)-2,3,4,4a,5,6-hexahydro-1H-pyrazino[2,1-d][1,5]benzoxazepine] | – | + (from 10 to 30) | < 20 | > 70 | < 83.3 | –
COC[C@@H]1C[C@@H]2CNCCN2c2cc(OC)cc(Cl)c2O1.Cl [Example 44, (4aR,6S)-8-Chloro-10-methoxy-6-(methoxymethyl)-2,3,4,4a,5,6-hexahydro-1H-pyrazino[2,1-d][1,5]benzoxazepine hydrochloride] | ++ (from >30 to 100) | – | 20 to 200 | > 70 | < 83.3 | –
COC[C@@H]1C[C@@H]2CNCCN2c2cccc(C3CC3)c2O1.Cl [Example 48, (4aR,6S)-8-Cyclopropyl-6-(methoxymethyl)-2,3,4,4a,5,6-hexahydro-1H-pyrazino[2,1-d][1,5]benzoxazepine hydrochloride] | – | + (from 10 to 30) | < 20 | > 70 | < 83.3 | –
COC[C@@H]1C[C@@H]2CNCCN2c2cc(F)cc(C3CC3)c2O1.Cl [Example 49, (4aR,6S)-8-Cyclopropyl-10-fluoro-6-(methoxymethyl)-2,3,4,4a,5,6-hexahydro-1H-pyrazino[2,1-d][1,5]benzoxazepine hydrochloride] | – | ++ (from >30 to 100) | < 20 | > 70 | < 83.3 | –
COC[C@@H]1C[C@@H]2CNCCN2c2cccc(F)c2O1.Cl [Example 50, (4aR,6S)-8-Fluoro-6-(methoxymethyl)-2,3,4,4a,5,6-hexahydro-1H-pyrazino[2,1-d][1,5]benzoxazepine hydrochloride] | – | ++ (from >30 to 100) | 20 to 200 | > 70 | < 83.3 | –
COC[C@@H]1C[C@@H]2CNCCN2c2c(F)c(F)c(F)c(Cl)c2O1.Cl [Example 55, (4aR,6S)-8-Chloro-9,10,11-trifluoro-6-(methoxymethyl)-2,3,4,4a,5,6-hexahydro-1H-pyrazino[2,1-d][1,5]benzoxazepine hydrochloride] | +++ (>100) | +++ (>100) | < 20 | > 70 | – | –
